{
  "source": "patent US20060100182A1",
  "about": "“Pharmaceutical compositions for the treatment of urinary incontinence” (priority 2002, published 2006)",
  "origin": "cited, not measured here",
  "note": "Counter-ions that a name gives are not always drawn.",
  "data": [
    {"smiles": "CCN(CC)CC#CCOC(=O)C(O)(c1ccccc1)C1CCCCC1", "note": "(stereo not drawn) [oxybutynin, 4-(diethylamino)-2-butynyl acetate ∝-cyclohexyl ∝-hydroxyphenyl hydrochloride]", "values": [
      {"measurement": "systemic bioavailability", "setting": "oral route, hepatic first-pass effect", "value": "~6", "unit": "%"},
      {"measurement": "maximum plasmatic levels", "setting": "oral route, recommended doses, 5 mg tablets", "value": "8 to 18", "unit": "ng/mL"},
      {"measurement": "elimination half-life", "setting": "statutory information DITROPAN, Vidal 2001", "value": 2, "unit": "h"}
    ]}
  ]
}
